Results on one compound are retold here after ChEMBL document CHEMBL2074076, “Reversal of P-glycoprotein-mediated multidrug resistance by Alisol B 23-acetate” (Biochem Pharmacol, 2004).

The target in series [1] is T1, ATP-dependent translocase ABCB1 (Homo sapiens, UniProt P08183). The series can be described thus: TP_TRANSPORTER: drug resistance (vinblastine) in K562-DR cells. Format: functional, cell-based.
For series [2], the target named is T1, ATP-dependent translocase ABCB1. The series is described as follows: TP_TRANSPORTER: drug resistance (vinblastine) in HepG2-DR cells. The format is functional, cell-based.

T1 sequence (P08183 whole entry): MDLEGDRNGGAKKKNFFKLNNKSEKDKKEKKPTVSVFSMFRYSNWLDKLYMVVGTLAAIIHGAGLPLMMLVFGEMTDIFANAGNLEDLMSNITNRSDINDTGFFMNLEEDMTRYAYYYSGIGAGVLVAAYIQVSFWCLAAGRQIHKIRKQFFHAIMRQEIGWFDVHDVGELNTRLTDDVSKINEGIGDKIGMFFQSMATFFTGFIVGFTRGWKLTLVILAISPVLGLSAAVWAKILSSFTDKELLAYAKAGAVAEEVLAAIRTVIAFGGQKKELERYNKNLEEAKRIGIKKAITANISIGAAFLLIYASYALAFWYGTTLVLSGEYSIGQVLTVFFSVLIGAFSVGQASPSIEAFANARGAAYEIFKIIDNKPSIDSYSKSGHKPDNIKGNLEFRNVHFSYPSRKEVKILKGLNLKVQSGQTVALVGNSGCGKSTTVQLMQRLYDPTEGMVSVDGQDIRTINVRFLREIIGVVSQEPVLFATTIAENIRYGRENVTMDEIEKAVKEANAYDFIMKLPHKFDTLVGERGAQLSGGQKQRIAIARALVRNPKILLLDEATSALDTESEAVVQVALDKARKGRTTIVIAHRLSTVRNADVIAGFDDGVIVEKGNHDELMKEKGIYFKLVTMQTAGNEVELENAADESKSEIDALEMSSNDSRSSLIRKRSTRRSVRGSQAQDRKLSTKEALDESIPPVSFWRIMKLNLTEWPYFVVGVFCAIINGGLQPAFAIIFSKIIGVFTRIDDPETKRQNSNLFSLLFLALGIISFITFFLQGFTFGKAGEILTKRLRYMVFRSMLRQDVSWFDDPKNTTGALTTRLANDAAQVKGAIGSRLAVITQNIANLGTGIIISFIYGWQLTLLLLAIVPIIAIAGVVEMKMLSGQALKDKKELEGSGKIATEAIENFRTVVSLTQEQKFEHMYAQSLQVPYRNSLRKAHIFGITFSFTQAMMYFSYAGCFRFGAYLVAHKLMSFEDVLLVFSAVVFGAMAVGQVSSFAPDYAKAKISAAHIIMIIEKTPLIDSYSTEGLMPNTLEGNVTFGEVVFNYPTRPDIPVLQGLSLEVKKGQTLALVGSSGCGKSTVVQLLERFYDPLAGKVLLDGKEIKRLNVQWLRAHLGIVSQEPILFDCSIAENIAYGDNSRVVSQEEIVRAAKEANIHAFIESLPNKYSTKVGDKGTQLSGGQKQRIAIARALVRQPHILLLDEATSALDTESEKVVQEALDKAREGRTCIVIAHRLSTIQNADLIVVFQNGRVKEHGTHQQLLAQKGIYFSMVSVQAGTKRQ

With `C[C@H](C[C@](O)(CC(=O)O)C1OC1(C)C)C1=C2C[C@H](O)[C@@H]3[C@H](CCC4C(C)(C)C(=O)CC[C@@]43C)[C@@]2(C)CC1` (some centres not stated), the Activity result in series [1] and in series [2] was “inhibitor [+]” in each case.
